The target in the assay is T1, Amino acid transporter (Rattus norvegicus) (UniProt Q9Z1J7).
T1 sequence (whole entry): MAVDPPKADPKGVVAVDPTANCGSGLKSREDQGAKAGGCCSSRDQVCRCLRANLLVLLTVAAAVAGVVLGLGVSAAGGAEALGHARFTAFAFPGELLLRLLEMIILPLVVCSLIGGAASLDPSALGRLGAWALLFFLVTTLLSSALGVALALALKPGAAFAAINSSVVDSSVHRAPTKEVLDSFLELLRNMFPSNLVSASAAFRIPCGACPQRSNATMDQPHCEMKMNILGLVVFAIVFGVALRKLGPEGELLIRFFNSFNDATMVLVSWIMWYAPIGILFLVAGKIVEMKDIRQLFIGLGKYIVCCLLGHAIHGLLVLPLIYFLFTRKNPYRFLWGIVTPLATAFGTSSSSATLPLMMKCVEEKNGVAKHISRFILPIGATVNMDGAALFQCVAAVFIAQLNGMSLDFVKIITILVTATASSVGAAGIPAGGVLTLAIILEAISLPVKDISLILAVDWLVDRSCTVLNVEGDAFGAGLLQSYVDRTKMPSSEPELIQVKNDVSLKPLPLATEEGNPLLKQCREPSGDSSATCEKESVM
Nature of the assay: Inhibition of ASCT2 mediated [3H]-D-serine uptake in rat hippocampal astrocytes at 1 mM after 5 mins by beta counting analysis. The assay is classed as cell-based.

With `O=C(O)[C@H]1NCCC1c1ccccc1` (some centres not stated), the inhibition – broadly, the percentage by which the read-out fell short of the control – is more than 25%.

Turning to `NC(C(=O)O)C(O)c1cccnc1` (racemic), the inhibition is more than 25%.

On to `O=C(O)C1C[C@@H](Cc2ccc(Cl)c(Cl)c2)CN1` (single isomer, unassigned), for which the inhibition was more than 25%.

Consider `NC(C(=O)O)C1CC2C=CC1C2` (configuration not stated), for which the inhibition is more than 25%.

`CC(O)[C@H](C)[C@H](N)C(=O)O` (some centres not stated) yielded an inhibition of more than 25%.

Take `C[C@H](N)C(=O)O`: the inhibition was more than 25%.

Molecule `N[C@@H](CCCc1ccccc1)C(=O)O` returned an inhibition of more than 25%.

`N[C@H](CCO)C(=O)O` came in with an inhibition of more than 25%.

On to `NC(C(=O)O)C12CC3CC(CC(C3)C1)C2` (configuration not stated), for which the inhibition is more than 25%.

`C[C@H]1CCN[C@@H]1C(=O)O` came in with an inhibition of more than 25%.

Turning to `NC(C(=O)O)c1ccc(C(=O)O)c(O)c1` (configuration not stated), the inhibition is more than 25%.

Take `O=C(O)/C(=C/c1c(C(=O)O)[nH]c2cc(Cl)cc(Cl)c12)c1ccccc1`: the inhibition is more than 25%.

`NC(Cc1c[nH]c2cccc(F)c12)C(=O)O` (configuration not stated) yielded an inhibition of more than 25%.

`NC(CCC(=O)Nc1ccccc1)C(=O)O` (configuration not stated) yielded an inhibition of more than 25%.

Consider `Cc1ccc(C[C@H]2CNC(C(=O)O)C2)cc1` (single isomer, unassigned), for which the inhibition was more than 25%.

`O=C(O)C1C[C@@H](Cc2cccc(F)c2)CN1` (single isomer, unassigned) showed an inhibition of more than 25%.

Consider `O=C(O)[C@H]1NCC[C@@H]1c1ccccc1`, for which the inhibition is more than 25%.

The molecule `N[C@H](C(=O)O)c1cccc2ccccc12` returned an inhibition of more than 25%.

Molecule `O=C(O)[C@@H]1C[C@@H](C2CCCCC2)CN1` returned an inhibition of more than 25%.

With `N[C@@H](CC1CCCC1)C(=O)O`, the inhibition is more than 25%.

As to `CNC(C(=O)O)c1ccc(OC)cc1` (configuration not stated), the inhibition is more than 25%.

In turn, `O=C(O)[C@@H]1NCC[C@H]1Cc1ccc(F)cc1` returned an inhibition of more than 25%.

`N[C@H]1CCOC1=O`: the inhibition is more than 25%.

Molecule `NC(C(=O)O)c1ccc(CO)c(O)c1` (configuration not stated) displayed an inhibition of more than 25%.

On to `N[C@H](C(=O)O)c1cccc(O)c1`, for which the inhibition was more than 25%.

Consider `Cc1ccccc1C[C@H]1CNC(C(=O)O)C1` (single isomer, unassigned), for which the inhibition was more than 25%.

Take `N[C@@H](Cc1cccs1)C(=O)O`: the inhibition was more than 25%.

On to `O=C(O)[C@@H]1C[C@@H](Oc2cccc(Cl)c2)CN1`, for which the inhibition is more than 25%.

`N[C@@H](CS)C(=O)O`: the inhibition is more than 25%.

`N[C@@H](CC(=O)OCc1ccccc1)C(=O)O` showed an inhibition of more than 25%.

`O=C(O)C1C[C@@H](Cc2ccc(I)cc2)CN1` (single isomer, unassigned) yielded an inhibition of more than 25%.

For `N[C@@H](Cc1ccc2ccccc2c1)C(=O)O`, the inhibition is more than 25%.

Consider `O=C(O)[C@H]1C[C@@H](F)CN1`, for which the inhibition is more than 25%.

As to `O=C(O)[C@@H]1C[C@@H](F)CN1`, the inhibition was more than 25%.

Consider `C#CCC[C@H](N)C(=O)O`, for which the inhibition is more than 25%.

As to `N[C@H](C(=O)O)C1CCCCC1`, the inhibition is more than 25%.

Molecule `O=C(O)[C@@H]1CN1` gave an inhibition of more than 25%.

For the molecule `Nc1ccccc1C(=O)C[C@H](N)C(=O)O`, the inhibition was more than 25%.

`NC(C(=O)O)c1nnn[nH]1` (configuration not stated) registered an inhibition of more than 25%.

For `O=C(O)C1C[C@@H](Cc2ccc(Cl)cc2)CN1` (single isomer, unassigned), the inhibition is more than 25%.

With `O=C(O)[C@@H]1C[C@@H](Cc2ccccn2)CN1`, the inhibition was more than 25%.

On to `NC(C(=O)O)c1cc(O)ccc1Cl` (configuration not stated), for which the inhibition was more than 25%.

For `NC1(C(=O)O)CCC1`, the inhibition was more than 25%.

In turn, `N[C@@H](Cc1c[nH]c2ccc(O)cc12)C(=O)O` returned an inhibition of more than 25%.

Consider `N[C@H](C(=O)O)c1ccco1`, for which the inhibition is more than 25%.

`N[C@@H](Cc1ccc(O)c(O)c1)C(=O)O`: the inhibition is more than 25%.

Molecule `NC(C(=O)O)c1cccc(Br)c1` (configuration not stated) returned an inhibition of more than 25%.

With `O=C(O)C1C[C@@H](Cc2ccc([N+](=O)[O-])cc2)CN1` (single isomer, unassigned), the inhibition was more than 25%.

The molecule `N[C@@H](C(=O)O)C1=CCC=CC1` showed an inhibition of more than 25%.

On to `O=C(O)C1C[C@@H](Cc2ccc(Cl)cc2Cl)CN1` (single isomer, unassigned), for which the inhibition was more than 25%.

The molecule `C[C@@H](O)[C@@H](N)C(=O)O` (racemic) returned an inhibition of more than 25%.

`O=C(O)[C@@H]1NCC[C@H]1Cc1ccccc1` showed an inhibition of more than 25%.

`N[C@@H](Cn1oc(=O)[nH]c1=O)C(=O)O`: the inhibition is more than 25%.

On to `COC(=O)CC[C@H](N)C(=O)O`, for which the inhibition was more than 25%.

`N[C@@H](CCS)C(=O)O` yielded an inhibition of more than 25%.

As to `CC(C)[C@H](N)C(=O)O`, the inhibition was more than 25%.

Consider `CC[C@H](N)C(=O)O`, for which the inhibition was more than 25%.

The molecule `O=C(O)[C@@H]1C[C@H](Cc2ccccc2)CN1` had an inhibition of more than 25%.

For `O=C(Nc1ccc2ccccc2c1)[C@@H]1CCCN1`, the inhibition was more than 25%.

`N[C@@H](CO)C(=O)Nc1ccc2ccccc2c1` gave an inhibition of more than 25%.

Consider `O=C(O)C1C[C@@H](Cc2ccncc2)CN1` (single isomer, unassigned), for which the inhibition was more than 25%.

For `CC(C)(S)[C@H](N)C(=O)O`, the inhibition was more than 25%.

`CC(C)(C)c1ccc(C[C@H]2CNC(C(=O)O)C2)cc1` (single isomer, unassigned) showed an inhibition of more than 25%.

On to `NC(C(=O)O)C(O)c1cccs1` (racemic), for which the inhibition is more than 25%.

On to `CSCC[C@H](N)C(=O)O`, for which the inhibition was more than 25%.

`O=C(O)C1NCc2ccccc21` (configuration not stated) had an inhibition of more than 25%.

With `NC(C(=O)O)c1cccc(C(F)(F)F)c1` (configuration not stated), the inhibition is more than 25%.

In turn, `O=C(O)C1C[C@@H](Cc2csc3ccccc23)CN1` (single isomer, unassigned) registered an inhibition of more than 25%.

Molecule `NC(C(=O)O)c1ccc2c(c1)OCCO2` (configuration not stated) returned an inhibition of more than 25%.

The molecule `Cc1ccccc1[C@H](N)C(=O)O` had an inhibition of more than 25%.

Consider `O=C(O)C1C[C@@H](Cc2ccccc2I)CN1` (single isomer, unassigned), for which the inhibition was more than 25%.

Take `CCOC(=O)CC[C@H](N)C(=O)O`: the inhibition is more than 25%.

In turn, `N[C@H](C(=O)O)c1ccsc1` returned an inhibition of more than 25%.

Molecule `Cc1cc(C(N)C(=O)O)ccc1F` (configuration not stated) displayed an inhibition of more than 25%.

Molecule `C=CCC(N)C(=O)O` (configuration not stated) registered an inhibition of more than 25%.

The molecule `O=C(O)C1C[C@@H](Cc2ccc(Br)cc2)CN1` (single isomer, unassigned) showed an inhibition of more than 25%.

The molecule `NC(C(=O)O)c1ccc(F)c(F)c1` (configuration not stated) came in with an inhibition of more than 25%.

`N[C@@H](Cc1csc2ccccc12)C(=O)O` gave an inhibition of more than 25%.

`N[C@@H](Cc1c[nH]c2ccccc12)C(=O)O` had an inhibition of more than 25%.

`C[C@H](O)[C@@H](N)C(=O)O` had an inhibition of more than 25%.

The molecule `N[C@@H](CCO)C(=O)O` had an inhibition of more than 25%.

`[N-]=[N+]=CC(=O)CC[C@H](N)C(=O)O`: the inhibition is more than 25%.

As to `NC(Cc1c[nH]c2cc(F)ccc12)C(=O)O` (configuration not stated), the inhibition was more than 25%.

In turn, `C[C@@H](N)C(=O)O` gave an inhibition of more than 25%.

As to `NC(C(=O)O)c1ccccc1Cl` (configuration not stated), the inhibition is more than 25%.

Regarding `CCOC(=O)CC(N)C(=O)O` (configuration not stated), the inhibition was more than 25%.

For the molecule `O=C(O)[C@@H]1C=CCN1`, the inhibition was more than 25%.

The molecule `O=C(O)C(c1ccc(F)cc1)N1CCOCC1` (configuration not stated) yielded an inhibition of more than 25%.

`NC(C(=O)O)c1cccc(F)c1` (configuration not stated) had an inhibition of more than 25%.

For `O=C(O)[C@@H]1C[C@@H](Cc2ccc(C(F)(F)F)cc2)CN1`, the inhibition was more than 25%.

`N#Cc1ccc(C[C@H]2CNC(C(=O)O)C2)cc1` (single isomer, unassigned) had an inhibition of more than 25%.

For the molecule `CC(C)(C)OC(=O)N1C[C@H](C/C=C/c2ccccc2)C[C@H]1C(=O)O`, the inhibition is more than 25%.

The molecule `Nc1c(O)cccc1C(=O)CC(N)C(=O)O` (configuration not stated) gave an inhibition of more than 25%.

Consider `NC(C(=O)O)C1C2CC3CC(C2)CC1C3` (configuration not stated), for which the inhibition was more than 25%.

On to `O=C(O)C1Cc2c([nH]c3ccccc23)CN1` (configuration not stated), for which the inhibition is more than 25%.

Regarding `CCC[C@H](N)C(=O)O`, the inhibition is more than 25%.

In the case of `NC(C(=O)O)c1ccc2c(c1)OCO2` (configuration not stated), the inhibition was more than 25%.

With `Nc1ccccc1C(=O)C[C@@H](N)C(=O)O`, the inhibition is more than 25%.

`CCSC[C@H](N)C(=O)O` gave an inhibition of more than 25%.

For `O=C(O)C1C[C@@H](Cc2ccsc2)CN1` (single isomer, unassigned), the inhibition was more than 25%.

Turning to `C#CC[C@H]1CN[C@H](C(=O)O)C1`, the inhibition was more than 25%.

`O=C(/C=C/c1c(C(=O)O)[nH]c2cc(Cl)cc(Cl)c12)Nc1ccccc1` came in with an inhibition of more than 25%.

Consider `O=C(O)C1C[C@@H](Cc2cccc(Br)c2)CN1` (single isomer, unassigned), for which the inhibition is more than 25%.

`O=C(O)[C@@H]1C[C@@H](Cc2ccccc2C(F)(F)F)CN1` displayed an inhibition of more than 25%.

`NC(C(=O)O)c1cc(O)cc(O)c1` (configuration not stated) yielded an inhibition of more than 25%.

Regarding `COC(=O)[C@@H](N)c1ccccc1`, the inhibition was more than 25%.

In the case of `N[C@H](C(=O)O)c1ccc(C(F)(F)F)cc1`, the inhibition was more than 25%.

The record behind these values is ChEMBL document CHEMBL3991947, “D-serine transporter inhibitors as pharmaceutical compositions for the treatment of central nervous system disorders” (2014).
